{
  "source": "patent US20050196343A1",
  "about": "“Degradable nanoparticles” (Molecular Therapeutics, Inc., priority 2004, published 2005)",
  "test_system": "intracerebral 9L gliomas",
  "test": "In vivo therapy of glioma using Photofrin-containing nanoparticles with laser (diffusion MRI, Kaplan-Meier survival)",
  "parameters": "species or system rat",
  "details": "9L tumor rats, tail vein administration, FIG. 17",
  "description": "Rats harboring intracerebral 9L gliomas, were allowed to grow to approximately 50 microliters in size, as quantitated using multi-slice T2-weighted MRI. Rats were divided into the following groups: sham (untreated); laser exposure only; intravenous administered photofrin (no nanoparticles); photofrin-encapsulated nanoparticles; and photofrin-encapsulated nanoparticles with F3 targeting (n=5/group). Diffusion MRI scans were obtained prior to treatment and every 2-3 days following treatment. Treatment with laser administration consisted of 750 mW of laser light administered at 630 nm for 7.5 minutes of total exposure time. This was accomplished through the same 1 mm diameter burr hole which was initially made to inject the 9L tumor cells to initiate tumor growth. The depth of the cylindrical laser tip was adjusted, based upon the MRI scan data, to be at the base of the tumor mass in order to optimize light delivery to the overall tumor mass. Diffusion MRI scans were acquired in order to assess in real time, the effectiveness of treatment. Increased diffusion values within the tumor mass reflect areas of cell kill (necrosis) and the magnitude of the increase is proportional to the level of cell killing. As shown in the MRI scans in FIG. 15, control diffusion tumor values are on average at approximately 100 apparent diffusion coefficient units (ADC).",
  "data": [
    {"substance": "Photofrin", "values": [
      {"measurement": "survival times (Kaplan-Meier)", "value": "no significant differences in survival times"}
    ]}
  ]
}
